Measurements reported in paper PMC4772543, “Immune responses to Mycobacterial heat shock protein 70 accompany self-reactivity to human BiP in rheumatoid arthritis” (Scientific Reports, 2016).

What was measured:
[1] = system: CD4+ T cells from MycHSP70-immunized HLA-DR4 transgenic mice; assay: Splenic CD4+ T cell proliferation from MycHSP70-immunized HLA-DR4 transgenic mice in response to epitopes; assay type: cell-based, mouse; conditions: antigen 10 μg/mL, 72 h, irradiated splenocytes, 3H-thymidine
Protocol: Figure 5 Immunization of HLA-DR4 transgenic mice with MycHSP70. (A) HLA-DR4 transgenic mice were immunized with recombinant MycHSP70. Serum anti-MycHSP70 and anti-mouse BiP antibody titers were measured in the 21 days following the first immunization. (B) Splenic CD4+ T cell proliferation from MycHSP70-immunized HLA-DR4 transgenic mice in response to MycHSP70_287–306 and BiP336–355 epitopes. Proliferation was determined by the incorporation of [3]-H thymidine. Data were representative of at least three independent trials. ***p < 0.001.
HLA-DR4 transgenic mice were obtained from Taconic, immunized twice (day 0, 14) with 100 μg of MycHSP70 with the same volume of complete Freund’s adjuvant subcutaneously into the tails, and sacrificed on day 21. MACS-purified CD4^+ T cells (1 × 10^5/mL) were cultured with irradiated splenocytes (1 × 10^6/mL) and an antigen (10 μg/mL) in RPMI 1640 medium supplemented with 5% FCS, 2 mM L-glutamine, 100 U/ml penicillin, 100 μg/ml streptomycin, and 5 × 10^−5 M 2-mercaptoethanol in a humidified incubator at 37 °C, 5% CO2, for 72 h. ^3H-thymidine was pulsed to each well, cells were harvested after an 18-hour incubation, and analyzed with a scintillation counter.

[2] = target: T1, HLA-DRB1*0401 (Homo sapiens, UniProt P01903+P01911, A100K/A169T/F76Y/I96L/K127E/L162R/M171V/N62H/P40V/Q125Y/R42H/S133A/S149N/S66Y/V115G/V209L/W38E); assay: HLA-DR4 peptide binding assay (competition with labelled HA peptide); conditions: inhibition of labelled HA peptide (0.5 nM) binding to 40 nM purified DR4, 37 °C, 4 h
T1 construct: Soluble DR4 molecules in the supernatant were collected and purified; made in house; host or cells: Drosophila S2 cells
Description: (§1) Figure 4 HLA-DR4 binding assay. (A) Binding activities between a HLA-DRB1*0401 and 0405 molecule and MycHSP70_287–306. Binding activities were estimated by the inhibition of peroxidase-labeled HA307–318 peptide binding to a HLA-DRB1 molecule. (B) Binding of MycHSP70_287–306 with alanine-substituted peptides to HLA-DRB1*0405 molecules. A MycHSP70_287–306-derived peptide in which an amino residue was substituted by an alanine residue. Inhibitory concentration 50% (IC50) was used as a measure of binding activity. *p < 0.05, **p < 0.01, ***p < 0.001.
(§2) The procedure to assess peptide binding to HLA-DRB1*0401 and 0405 was described in a previous study. In brief, HLA-DRA1B1*0401 and 0405 was cloned and transfected into S2 Drosophila cells. Soluble DR4 molecules in the supernatant were collected and purified through an affinity column coupled with the anti-DR antibody LB3.1. In the peptide binding assay, a 40 nM solution of purified DR4 was incubated at 37 °C for 4 h with the HA307–319 peptide (0.5 nM), which had been labeled at the N terminus with biotin. The indicated concentrations of the peptides were added as competitors to HA peptide binding. […] Bound biotinylated peptides were detected by an incubation with streptavidin-alkaline phosphatase. An automatic microplate reader (Bio-rad 550, Bio-rad) was used to measure optical density.

[3] = target: T2, HLA-DRB1*0405 (Homo sapiens, UniProt P01903+P01911, A100R/A169T/D86S/F76Y/I96L/K127E/L162R/M171V/N62H/P40V/Q125Y/R42H/S133A/S149N/S66Y/V115G/V209L/W38E); assay: as above; conditions: inhibition of labelled HA peptide (0.5 nM) binding to 40 nM purified DR4, 37 °C, 4 h
T2 construct: Soluble DR4 molecules in the supernatant were collected and purified; made in house; host or cells: Drosophila S2 cells
Description: as §1, §2

With DRTRKPFQSVIADTGISVSE [MycHSP70_287–306] the “CD4+ T cell proliferation in response to peptide” value [1] was “significant CD4^+ T cell proliferation was induced”, the “binding to HLA-DRB1*0401 molecule” value [2] was “bound” and the “binding to HLA-DRB1*0405 molecule” value [3] was “bound”.
